# Reference: patent publication US9067896B2, “Crystalline forms of 3-(2,6-dichloro-3,5-dimethoxy-phenyl)-1-{6-[4-(4-ethyl-piperazin-1-yl) -phenylamino]-pyrimidin-4-yl}-1-methyl-urea and salts thereof” (Novartis AG, priority 2009, dated 2015)
# Counter-ions that a name gives are not always drawn. Like-named read-outs stand apart in the source and are kept apart here.
# Columns and labels:
# [1] = Pharmacokinetics / bioavailability in rats; type: in vivo; settings: for concentration at 24 h / concentration at 8 h: read-out: Clast [μmol/L ± SE]; for half-life: read-out: t1/2 terminal elimination (converted); for Cmax: read-out: Cmax [μmol/L ± SE]
# Experimental: The higher water solubility of the phosphate salt compared to the free base (and other acid salts, as described above) led to the development of a solution formulation (or composition), which would not be feasible with the free base due to solubility restrictions. For this experiment, the phosphate salt was prepared as follows. In a glass vial, 10.7 mg of the free base was dissolved in 4 ml THF. Phosphoric acid (1.76 ml) in acetone (0.01M) was added. The mixture was warmed to 50° C. for about 2 minutes. The vial was left open for partial evaporation at room temperature. Overnight, a suspension was formed, which was filtered yielding about 5.5 mg of an off-white powder. The bioavailabilities, in rats, of the active agents (the free base and its phosphate salt), formulated variously, are tabulated below (Table 10).
# [2] = Determination of solubility (equilibration in solvent, filtrate by HPLC); type: physicochemical
# Experimental: Excess free base (free base of Formula I), its phosphate salt (the monophosphoric acid salt of the free base), or another acid salt was equilibrated in solvents for 1 day at 25±0.5° C. The resultant slurry was filtered and the filtrate used for solubility determination by HPLC.
# Solubility of the monohydrate of the anhydrous and monohydrate free base was measured in various aqueous media (e.g., pH 6.8 buffer, pH 4.5 buffer, pH 1 buffer), including simulated and actual human fluids.
# The human fluids were collected from 12 human subjects.
# Solubility studies of the phosphate salt were undertaken in aqueous media and in human fluids at 24 hours.
# [3] = rat, in vivo, iv, 5 mg/kg, rats, i.v. [5 mg/kg]
# [4] = rat, in vivo, po, 8.57 mg/kg, rats, free base p.o., suspension (water containing 0.5% HPMC) [8.57 mg/kg]
# [5] = rat, in vivo, po, 10 mg/kg, rats, colloidal solution (water, ethanol and cremophor EL) [10 mg/kg]
# [6] = rat, in vivo, po, 10 mg/kg, rats, p.o., colloidal solution (water, ethanol and cremophor EL) [10 mg/kg]
# [7] = rats, free base p.o., suspension (water containing 0.5% HPMC) [8.57 mg/kg]
# [8] = rats, p.o., colloidal solution (water, ethanol and cremophor EL) [10 mg/kg]
# [9] = rat, in vivo, po, 8.57 mg/kg, rats, phosphate salt p.o., supension (water containing 0.5% HPMC) [8.57 mg/kg]
# [10] = rat, in vivo, po, 10 mg/kg, pH 4.7, rats, p.o., solution (PEG300/acetate buffer pH 4.7 1:1) [10 mg/kg]
# [11] = rats, p.o., solution (PEG300/acetate buffer pH 4.7 1:1) [10 mg/kg]
# [12] = rats, phosphate salt p.o., supension (water containing 0.5% HPMC) [8.57 mg/kg]
smiles,measurement,setting,value
"CCN1CCN(c2ccc(Nc3cc(N(C)C(=O)Nc4c(Cl)c(OC)cc(OC)c4Cl)ncn3)cc2)CC1 [Free Base, 3-(2,6-Dichloro-3,5-dimethoxy-phenyl)-1-{6-[4-(4-ethyl-piperazin-1-yl)-phenylamino]-pyrimidin-4-yl}-1-methyl-urea]",AUC(0-inf),[1]; [3],2.47 µM·h
same,concentration at 5 min,"[1]; rat, in vivo, iv, 5 mg/kg, rats, i.v. [5 mg/kg], read-out: C5 min [μmol/L ± SE]",0.972 ± 0.404 µmol/L
same,concentration at 24 h,[1]; [3],0.003 ± 0.003 µmol/L
same,half-life,[1]; [3],4.5 h
same,clearance,"[1]; rat, in vivo, iv, rats, i.v. [5 mg/kg]",60 mL/min/kg
same,Vd,"[1]; rat, in vivo, iv, rats, i.v. [5 mg/kg], read-out: Vss",9.6 L/kg
same,AUC(0-inf),[1]; [4],1.55 µM·h
same,Tmax,[1]; [4],2 h
same,concentration at 8 h,[1]; [4],0.077 ± 0.038 µmol/L
same,Cmax,[1]; [4],0.202 ± 0.021 µmol/L
same,half-life,[1]; [4],4.3 h
same,AUC(0-inf),[1]; [5],1.44 µM·h
same,Tmax,[1]; [5],3 h
same,concentration at 24 h,[1]; [6],0.01 ± 0.005 µmol/L
same,Cmax,[1]; [6],0.154 ± 0.026 µmol/L
same,half-life,[1]; [6],5.2 h
same,AUC (0-∞) dose ^A [(h · μmol/L)/(mg/kg)],[1]; [7],0.18 (h · μmol/L)/(mg/kg)
same,BAV f [%],[1]; [7],37 ± 11%
same,tlast,[1]; [7],8 h
same,AUC (0-∞) dose ^A [(h · μmol/L)/(mg/kg)],"[1]; rats, i.v. [5 mg/kg]",0.49 (h · μmol/L)/(mg/kg)
same,tlast,"[1]; rats, i.v. [5 mg/kg]",24 h
same,AUC (0-∞) dose ^A [(h · μmol/L)/(mg/kg)],[1]; [8],0.14 (h · μmol/L)/(mg/kg)
same,BAV f [%],[1]; [8],29%
same,tlast,[1]; [8],24 h
same,Solubility in mg/ml after 24 h,"[2]; Fasted State Simulated Intestinal Fluid (FaSSIF), listed as Anhydrous Free Base",0.001 mg/mL
same,Solubility in mg/ml after 24 h,"[2]; Fed State Simulated Intestinal Fluid (FeSSIF), listed as Anhydrous Free Base",0.148 mg/mL
same,Solubility in mg/ml after 24 h,"[2]; HIF, fed, listed as Anhydrous Free Base",0.004 mg/mL
same,Solubility in mg/ml after 24 h,"[2]; Human gastric fluid (HGF), listed as Anhydrous Free Base",0.001 mg/mL
same,Solubility in mg/ml after 24 h,"[2]; Human intestinal fluid (HIF) fasted, listed as Anhydrous Free Base",0.002 mg/mL
same,Solubility in mg/ml after 24 h,"[2]; Simulated Gastric Fluid (SGF), listed as Anhydrous Free Base",0.0497 mg/mL
same,solubility in common organic solvents (in words),[2]; listed as anhydrous free base,sparingly to slightly soluble
same,Solubility,"[2]; initial solubility test, Water",1 µg/mL
same,Solubility,"[2]; initial solubility test, pH3 Buffer",200 µg/mL
same,solubility at 24 h,"[2]; pH 1 HCl, 25 °C, pH 1, simulated gastric fluid, thermodynamic from solid, pH 1 HCl, read-out: Solubility in mg/ml after 24 h",0.052 mg/mL
same,Solubility,"[2]; pH 6.8 buffer, listed as anhydrous free base",ca. 0.00004 mg/mL
same,Solubility in mg/ml after 24 h,"[2]; ph 4.5 Acetate, listed as Anhydrous Free Base",0.008 mg/mL
same,Solubility in mg/ml after 24 h,[2]; ph 6.8 Phosphate,<LOQ*
same,Solubility,"[2]; water (free base: pH 6.67), listed as anhydrous free base",~0.09 µg/mL
CCN1CCN(c2ccc(Nc3cc(N(C)C(=O)Nc4c(Cl)c(OC)cc(OC)c4Cl)ncn3)cc2)CC1 [Phosphate salt (form A)],bioavailability relative to the free base,[1]; oral administration,~2 fold
same,AUC(0-inf),[1]; [9],1.23 µM·h
same,Tmax,[1]; [9],3 h
same,concentration at 8 h,[1]; [9],0.062 ± 0.006 µmol/L
same,Cmax,[1]; [9],0.15 ± 0.031 µmol/L
same,half-life,[1]; [9],4.4 h
same,AUC(0-inf),[1]; [10],2.52 µM·h
same,Tmax,[1]; [10],4 h
same,concentration at 8 h,[1]; [10],0.148 ± 0.018 µmol/L
same,Cmax,[1]; [10],0.263 ± 0.083 µmol/L
same,AUC (0-∞) dose ^A [(h · μmol/L)/(mg/kg)],[1]; [11],0.25 (h · μmol/L)/(mg/kg)
same,BAV f [%],[1]; [11],51%
same,t1/2 terminal elimination,[1]; [11],4.8 h
same,tlast,[1]; [11],8 h
same,AUC (0-∞) dose ^A [(h · μmol/L)/(mg/kg)],[1]; [12],0.14 (h · μmol/L)/(mg/kg)
same,BAV f [%],[1]; [12],29 ± 3%
same,tlast,[1]; [12],8 h
same,Solubility in mg/ml after 24 h,"[2]; Fasted State Simulated Intestinal Fluid (FaSSIF), listed as Phosphate Salt",0.003 mg/mL
same,Solubility in mg/ml after 24 h,"[2]; Fed State Simulated Intestinal Fluid (FeSSIF), listed as Phosphate Salt",1.067 mg/mL
same,Solubility in mg/ml after 24 h,"[2]; HIF, fed, listed as Phosphate Salt",0.00141 mg/mL
same,Solubility in mg/ml after 24 h,"[2]; Human gastric fluid (HGF), listed as Phosphate Salt",0.0115 mg/mL
same,Solubility in mg/ml after 24 h,"[2]; Human intestinal fluid (HIF) fasted, listed as Phosphate Salt",0.00223 mg/mL
same,Solubility in mg/ml after 24 h,"[2]; Simulated Gastric Fluid (SGF), listed as Phosphate Salt",0.088 mg/mL
same,solubility in common organic solvents (in words),[2],sparingly soluble
same,Solubility,"[2]; initial solubility test, Water, listed as Phosphate",1700 µg/mL
same,Solubility,"[2]; initial solubility test, pH3 Buffer, listed as Phosphate",39 µg/mL
same,Solubility in mg/ml after 24 h,"[2]; pH 1 HCl, listed as Phosphate Salt",0.089 mg/mL
same,Solubility,[2]; pH 6.8 buffer,ca. 0.00009 mg/mL
same,Solubility in mg/ml after 24 h,"[2]; ph 4.5 Acetate, listed as Phosphate Salt",0.731 mg/mL
same,Solubility,[2]; water (free base: pH 6.67),1300 µg/mL
